In publication PMC6272684, “Synthesis, Antiproliferative and Antifungal Activities of 1,2,3-Triazole-Substituted Carnosic Acid and Carnosol Derivatives” (Molecules, 2015):

Experiments:
[1] = test system: gastric epithelial adenocarcinoma (AGS) cells; assay: Antiproliferative assay (MTT reduction, 3 days); type: cell-based, human; conditions: >100 µM considered inactive, read-out: IC50 ± SD, AGS
Method: (§1) The antiproliferative activity towards the following human cell lines was determined: normal lung fibroblasts (MRC-5), gastric epithelial adenocarcinoma (AGS), lung cancer (SK-MES-1) and bladder carcinoma (J82) cells. […] When comparing the pairs 3–4, 5–6 and 7–8 differing in one CH2 unit in the linker, the activity decreased with linker length.
(§2) All human cell lines used in this work were purchased from the American Type Culture Collection (ATCC, Manasas, VA, USA). Normal lung MRC-5 fibroblasts (CCL-171), SK-MES-1 lung cancer cells (HTB-58) and J82 bladder carcinoma cells (HTB-1) were grown as monolayers in minimum essential Eagle medium (MEM) with Earles’s salts, 2 mM L-glutamine and 1.5 g∙L^−1 sodium bicarbonate. Gastric adenocarcinoma AGS cells (CRL-1739) were grown as monolayers in Ham F-12 medium containing 1 mM L-glutamine and 1.5 g∙L^−1 sodium bicarbonate. All media were supplemented with 10% heat-inactivated FBS, 100 IU∙mL^−1 penicillin and 100 µg∙mL^−1 streptomycin. Cells were grown in a humidified incubator with 5% CO2 in air at 37 °C. For the antiproliferative assay, cells were plated at a density of 5 × 10^4 cells∙mL^−1. Cells were seeded in 96-well plates (100 µL∙well^−1). One day after seeding, cells were treated with medium containing the compounds at concentrations ranging from 0 up to 100 µM during 3 days. The compounds were dissolved in DMSO (1% final concentration) and complete medium. Untreated cells (medium containing 1% DMSO) were used as 100% viability controls. […] Each concentration was tested in sextuplicate and experiments were repeated 2 times. Cell viability was determined by means of the MTT reduction assay at the end of the incubation with the products. The results were transformed to percentage of controls and the IC50 value was obtained adjusting the dose-response curve to a sigmoidal model. The software used was OriginPro 8.1 [30].

[2] = test system: bladder carcinoma (J82) cells; assay: Antiproliferative assay (MTT reduction, 3 days); type: cell-based, human; conditions: J82 cells, 3 days, MTT; >100 µM considered inactive; read-out: IC50 ± SD, J82
Method: as §1, §2

[3] = test system: C. albicans ATCC 10231; assay: Antifungal broth microdilution (CLSI M27-A3), growth inhibition; type: cell-based, Candida albicans; conditions: for MIC50 (minimum concentration to inhibit 50% of fungal growth), C. albicans: C. albicans ATCC 10231
Outline: (§3)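 Yeast inocula (1–5 × 10^3 CFU/mL) were tested by CLSI M27-A3 broth microdilution in RPMI-1640 at 250–3.9 μg∙mL^−1 (DMSO ≤1%) for 48 h at 30 °C in the dark. Growth was read at OD405, and % inhibition was calculated against growth and sterility controls in triplicate. MIC100 is total inhibition; MIC50 is 50% inhibition.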

[4] = test system: normal lung fibroblasts (MRC-5); assay: Antiproliferative assay (MTT reduction, 3 days); type: cell-based, human; conditions: MRC-5 normal fibroblasts, >100 µM considered inactive, read-out: IC50 ± SD, MRC-5
Method: (§4) The antiproliferative activity towards the following human cell lines was determined: normal lung fibroblasts (MRC-5), gastric epithelial adenocarcinoma (AGS), lung cancer (SK-MES-1) and bladder carcinoma (J82) cells.
as §2, with “Normal lung MRC-5 fibroblasts (CCL-171), SK-MES-1 lung cancer cells (HTB-58) and J82 bladder carcinoma cells (HTB-1) were grown as monolayers in minimum essential Eagle medium (MEM) with Earles’s salts, 2 mM L-glutamine and 1.5 g∙L^−1 sodium bicarbonate. Gastric adenocarcinoma AGS cells (CRL-1739) were grown as monolayers in Ham F-12 medium containing 1 mM L-glutamine and 1.5 g∙L^−1 sodium bicarbonate.” left out, “The results were transformed to percentage of controls and the IC50 value was obtained adjusting the dose-response curve to a sigmoidal model.” left out

[5] = test system: lung cancer (SK-MES-1) cells; assay: Antiproliferative assay (MTT reduction, 3 days); type: cell-based, human; conditions: >100 µM considered inactive, read-out: IC50 ± SD, SK-MES-1
Method: as §4
as §2, with “Normal lung MRC-5 fibroblasts (CCL-171), SK-MES-1 lung cancer cells (HTB-58) and J82 bladder carcinoma cells (HTB-1) were grown as monolayers in minimum essential Eagle medium (MEM) with Earles’s salts, 2 mM L-glutamine and 1.5 g∙L^−1 sodium bicarbonate. Gastric adenocarcinoma AGS cells (CRL-1739) were grown as monolayers in Ham F-12 medium containing 1 mM L-glutamine and 1.5 g∙L^−1 sodium bicarbonate.” left out, “The results were transformed to percentage of controls and the IC50 value was obtained adjusting the dose-response curve to a sigmoidal model.” left out

[6] = test system: C. neoformans ATCC 32264; assay: Antifungal broth microdilution (CLSI M27-A3), growth inhibition; type: cell-based, Cryptococcus neoformans; conditions: for MIC50 (minimum concentration to inhibit 50% of fungal growth), C. neoformans: C. neoformans ATCC 32264
Outline: as §3

IC50 [1] [µM]	IC50 [2] [µM]	MIC50 (minimum concentration to inhibit 50% of fungal growth), C. albicans [3] [µg/mL]	IC50 [5] [µM]	MIC50 (minimum concentration to inhibit 50% of fungal growth), C. neoformans [6] [µg/mL]	SMILES	Inhibition percentage against C. albicans ATCC 10231 ([3]; 3.9 μg∙mL^−1, 48 h) [%]	Inhibition percentage against C. albicans ATCC 10231 ([3]; 7.8 μg∙mL^−1, 48 h) [%]	Inhibition percentage against C. albicans ATCC 10231 ([3]; 15.6 μg∙mL^−1, 48 h) [%]	Inhibition percentage against C. albicans ATCC 10231 ([3]; 62.5 μg∙mL^−1, 48 h) [%]	Inhibition percentage against C. albicans ATCC 10231 ([3]; 125 μg∙mL^−1, 48 h) [%]	Inhibition percentage against C. albicans ATCC 10231 ([3]; 250 μg∙mL^−1, 48 h) [%]	Inhibition percentage against C. albicans ATCC 10231 ([3]; 31. μg∙mL^−1, 48 h) [%]	IC50 [4] [µM]	Inhibition percentage against C. neoformans ATCC 32264 ([6]; 3.9 μg∙mL^−1, 48 h) [%]	Inhibition percentage against C. neoformans ATCC 32264 ([6]; 7.8 μg∙mL^−1, 48 h) [%]	Inhibition percentage against C. neoformans ATCC 32264 ([6]; 15.6 μg∙mL^−1, 48 h) [%]	Inhibition percentage against C. neoformans ATCC 32264 ([6]; 31.2 μg∙mL^−1, 48 h) [%]	Inhibition percentage against C. neoformans ATCC 32264 ([6]; 62.5 μg∙mL^−1, 48 h) [%]	Inhibition percentage against C. neoformans ATCC 32264 ([6]; 125 μg∙mL^−1, 48 h) [%]	Inhibition percentage against C. neoformans ATCC 32264 ([6]; 250 μg∙mL^−1, 48 h) [%]	other results
39.2 ± 2.3	> 100	>250	81.7 ± 4.3	>250	CC(C)c1cc2c3c(c1OC(=O)CCc1cn(CSc4ccccc4)nn1)OC(=O)[C@@]31CCCC(C)(C)[C@@H]1CC2 [Compound 1, 12-O-(3-(((1-phenylthio)methyl)-1H-1,2,3-triazol-4-yl)-propanoyloxy)-11,20-epoxyabieta-8,11,13-trien-20-one]	0.0	0.0	0.4 ± 0.2	3.5 ± 0.3	8.2 ± 0.1	17.1 ± 0.1	1.9 ± 0.3	45.1 ± 2.1	0.0	0.0	0.0	3.7 ± 0.1	3.9 ± 0.4	8.9 ± 0.7	11.0 ± 0.5	Antifungal activity against C. albicans (in words) ([3]; at the assayed concentrations (250–3.9 μg∙mL^−1)): devoid of activity
> 100	> 100	>250	> 100	>250	CC(C)c1cc2c3c(c1OC(=O)CCCc1cn(Cc4ccc(Br)cc4)nn1)OC(=O)[C@@]31CCCC(C)(C)[C@@H]1CC2 [Compound 6, 12-O-(4-(1-(4-bromobenzyl)-1H-1,2,3-triazol-4-yl)-butanoyloxy)-11,20-epoxyabieta-8,11,13-trien-20-one]	0.0	1.4 ± 0.4	1.5 ± 0.1	13.2 ± 1.4	19.9 ± 0.5	45.4 ± 3.4	4.2 ± 0.9	> 100	0.0	0.0	0.0	5.4 ± 0.7	12.7 ± 0.8	22.4 ± 1.5	41.4 ± 2.7	–
64.3 ± 4.5	> 100	>250	> 100	>250	CC(C)c1cc2c3c(c1OC(=O)CCc1cn(Cc4ccc([N+](=O)[O-])cc4)nn1)OC(=O)C31CCCC(C)(C)C1CC2 (centres unmarked) [Compound 7, 12-O-(3-(1-(4-nitrobenzyl)-1H-1,2,3-triazol-4-yl)-propanoyloxy)-11,20-epoxyabieta-8,11,13-trien-20-one]	0.0	0.9 ± 0.2	2.1 ± 0.1	2.5 ± 0.5	10.5 ± 3.0	15.5 ± 1.1	2.2 ± 0.7	60.6 ± 3.6	0.0	0.0	0.0	0.0	0.0	20.0 ± 1.1	28.2 ± 2.7	–
> 100	> 100	>250	> 100	>250	CC(C)c1cc2c3c(c1OC(=O)CCc1cn(Cc4ccc(Br)cc4)nn1)OC(=O)[C@@]31CCCC(C)(C)[C@@H]1CC2 [Compound 5, 12-O-(3-(1-(4-bromobenzyl)-1H-1,2,3-triazol-4-yl)-propanoyloxy)-11,20-epoxyabieta-8,11,13-trien-20-one]	0.0	0.0	0.0	4.1 ± 1.7	8.3 ± 3.3	16.5 ± 1.3	3.0 ± 2.7	82.6 ± 6.6	2.3 ± 0.9	6.0 ± 0.7	7.7 ± 0.6	8.7 ± 1.4	12.0 ± 1.0	12.6 ± 0.5	36.9 ± 2.2	–
> 100	> 100	>250	> 100	>250	CC(C)c1cc2c3c(c1OC(=O)CCCc1cn(Cc4ccc([N+](=O)[O-])cc4)nn1)OC(=O)C31CCCC(C)(C)C1CC2 (centres unmarked) [Compound 8, 12-O-(4-(1-(4-nitrobenzyl)-1H-1,2,3-triazol-4-yl)-butanoyloxy)-11,20-epoxyabieta-8,11,13-trien-20-one]	0.0	0.0	0.0	5.6 ± 1.7	14.0 ± 1.9	27.5 ± 2.0	2.5 ± 1.3	> 100	0.0	0.0	0.3 ± 0.1	0.8 ± 0.1	8.2 ± 2.8	9.5 ± 2.9	10.4 ± 2.8	–
